Test results taken from US6613507B1 (priority 2000, dated 2003).

What was measured:
hepatitis C = details: human, in vivo; cited from earlier work
[1] = type: physicochemical; details: pH 7.4
[2] = dog, in vivo; cited from earlier work

Row | SMILES | biochemical and virological markers (hepatitis C) | amino group protonated at physiological pH [1] | increase in blood pressure [2]
1 | NC12CC3CC(CC(C3)C1)C2 [amantadine, 1-adamantanamine] | improved | over 90% | 
2 | CNC[C@H](O)c1cccc(O)c1 [phenylephrine] |  |  | 20%
